Assays:
Type in all cases: cell-based
[1] = tested on: promyelocytic leukemia cells HL60 (N-RasQ61L); test: Cell growth inhibition, suspension cells HL60; conditions: Homo sapiens, HL-60; 1 μM, 72 hours; read-out: HL-60 (NRasQ61L) % inhibition at 1 μM
In short: (§1)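 Suspension cells, 2 to 4×10^4 per well, cultured with compound in medium with 0.5% FBS (1% DMSO final) for 72 h at 37° C, 5% CO2. Viable cells counted with Cell Counting Reagent; inhibition calculated relative to controls.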

[2] = tested on: small cell lung cancer cells SHP77 (K-RasG12V); test: Cell growth inhibition, suspension cells SHP77; conditions: Homo sapiens, 1 μM, 72 hours, read-out: SHP77 (KRasG12V) % inhibition at 1 μM
In short: as §1

[3] = tested on: large bowel cancer cells SW480 (K-RasG12V); test: Cell growth inhibition, adherent cells SW480; conditions: Homo sapiens, 72 hours, read-out: SW480 (KRasG12V) % inhibition at 10 μM
Method: The cell growth inhibitory activity of the compound of the present invention on human culture cells having active-type mutation in Ras was evaluated by the below-mentioned method using suspension cancer cells {acute lymphoblastic leukemia cells CCRF-CEM (K-RasG12D), promyelocytic leukemia cells HL60 (N-RasQ61L), acute lymphoblastic leukemia cells MOLT4 (N-RasG12C), and small cell lung cancer cells SHP77 (K-RasG12V)} and adherent cancer cells {large bowel cancer cells SW480 (K-RasG12V) and large bowel cancer cell SW620 (K-RasG12V)}.
(Case of adherent cells) The cells suspended in a medium containing 10% FBS (1 to 2×10^4 cells/well) were seeded on a 96-well plate, and were then cultured at 37° C. in the presence of […]. Thereafter, the medium was exchanged with a medium containing […], to which each compound solution (final DMSO concentration: […]) had been added, and the cells were then cultured at 37° C. in the presence of […] for 72 hours.
(§2) Thereafter, the number of viable cells was measured using Cell Counting Reagent (Nacalai Tesque) in accordance with the manufacturer's instructions. Inhibition by the test compound was determined according to the following equation: […]

[4] = tested on: Vemurafenib-resistant malignant melanoma cells A375R (BRafV600E); test: Cell growth inhibition, drug-resistant malignant melanoma A375R; conditions: Homo sapiens, in the presence of 1 μM PLX (Vemurafenib), 72 hours
Method: (§3) The human malignant melanoma cell lines A375 and HT 144, each having BRafV600E mutation, were cultured in a medium containing 10% FBS at 37° C. in the presence of 5% CO2. At the time point in which the cells became confluent, 1 μM Vemurafenib, a BRaf inhibitor, was added to the medium, and the cells were then cultured in the presence of Vemurafenib for 1 month or more (during which the medium was exchanged every 1 week), so as to acquire Vemurafenib-resistant malignant melanoma cells A375R and HT 144R. The resulting resistant cells were suspended in a medium containing 10% FBS, and then seeded on a 96-well plate to an amount of 1 to 2×10^4 cells/well. The cells were cultured at 37° C. in the presence of 5% CO2 overnight. Thereafter, the medium was exchanged with a medium containing 0.5% FBS, to which each compound solution (final DMSO concentration: 1%) and 1 μM Vemurafenib had been added, and the cells were then cultured at 37° C. in the presence of 5% CO2 for 72 hours.
as §2
(§4) Hereafter, Inhibition (%) by 3.3 μM compound is shown.

[5] = tested on: Vemurafenib-resistant malignant melanoma cells HT 144R (BRafV600E); test: Cell growth inhibition, drug-resistant malignant melanoma HT144R; conditions: Homo sapiens, in the presence of 1 μM PLX (Vemurafenib), 72 hours
Method: as §3, §2, §4

CC(=O)N1/C(=C\c2nc3cc(C(=O)N4CCOCC4)ccc3s2)C(=O)c2ccccc21 [Example 47, (Z)-1-acetyl-2-((5-(morpholine-4-carbonyl)benzo [d]thiazol-2-yl)-methylene)-indolin-3-one]
inhibition at 1 µM [1]: 89% | inhibition at 1 µM [2]: 61% | inhibition at 10 µM [3]: 51% | inhibition at 3.3 µM [4]: 90% | inhibition at 3.3 µM [5]: 92%

— patent US20250091994A1, “RAS/RAF BINDING INHIBITOR COMPOUND” (NATIONAL UNIVERSITY CORPORATION KOBE UNIVERSITY, priority 2021, published 2025)
